Source: paper PMC3199943, “Screening the MayBridge Rule of 3 Fragment Library for Compounds That Interact with the Trypanosoma brucei myo-Inositol-3-Phosphate Synthase and/or Show Trypanocidal Activity” (Molecular Biology International, 2011)
Where two headings read alike, the source gives them in different places.

What was measured:
HeLa cells = assay: cells; settings: for viability at 500 µM: 65 h; for HeLa Cells Alamar Blue: Supplementary Table 1, compound 0.5 mM, percentage of controls, mean ± SD (n=3) or SE (n=2)
Method in brief: (§1)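 Viability by Alamar Blue (5 h) after ~65 h drug treatment; seeding density 2 × 10^4 cells/well in DMEM supplemented with 10% FCS and 2 mM L-Glutamine.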

TbINO1 = target: T1, TbINO1 (Trypanosoma brucei brucei, UniProt Q5QQ46); assay: biochemical; assay type: binding
T1 sequence (Q5QQ46 1-528): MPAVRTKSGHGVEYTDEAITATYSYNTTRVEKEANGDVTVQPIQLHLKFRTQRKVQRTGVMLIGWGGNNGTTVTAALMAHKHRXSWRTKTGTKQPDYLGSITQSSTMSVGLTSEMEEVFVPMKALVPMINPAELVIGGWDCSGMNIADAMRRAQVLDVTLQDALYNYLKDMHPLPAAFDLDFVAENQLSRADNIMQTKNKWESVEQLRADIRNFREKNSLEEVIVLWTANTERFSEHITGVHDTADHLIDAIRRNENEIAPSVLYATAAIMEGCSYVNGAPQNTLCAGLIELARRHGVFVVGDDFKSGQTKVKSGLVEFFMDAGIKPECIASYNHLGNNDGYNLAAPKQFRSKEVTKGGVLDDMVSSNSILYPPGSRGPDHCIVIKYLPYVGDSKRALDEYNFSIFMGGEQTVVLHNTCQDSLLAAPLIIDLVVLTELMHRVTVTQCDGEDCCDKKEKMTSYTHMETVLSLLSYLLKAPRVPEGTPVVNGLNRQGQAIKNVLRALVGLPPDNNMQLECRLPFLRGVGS

A549 cells = assay: Cytotoxicity against A549 cells, Alamar Blue; assay type: cell-based; settings: Supplementary Table 1, compound 0.5 mM, percentage of controls (n=1); for viability at 500 µM: Homo sapiens, A549, 65 h
Method in brief: as §1

[1] = Homo sapiens, HeLa, read-out: HeLa Cells Alamar Blue
[2] = read-out: Tb Ino1 Tm Shift [˚C]
[3] = Supplementary Table 1, compound 1mM, mean ± SD from Boltzman curve fitting
[4] = Supplementary Table 1, compound 1mM, mean ± SD from Boltzman curve fitting, read-out: Tb Ino1 Tm Shift [˚C]
[5] = Homo sapiens, HeLa, read-out: HeLa Cells Alamar Blue (% survival)

Compound | viability at 500 µM (HeLa cells; [1]) [%] | ΔTm at 1000 µM (TbINO1; [2]) [°C] | viability at 500 µM (A549 cells) [%] | also measured
Cc1ccc(CN)cc1Cl [compound 233, 3‐chloro‐4‐methylbenzylamine] | 91.7 ± 12.6 | 0.11 ± 0.08 | 163 | 
NC(=S)c1ccccc1 [compound 123, benzene‐1‐carbothioamide] | 89 ± 10.9 | 0.42 ± 0.06 | 87.9 | 
O=C(O)C(O)c1ccccc1 (stereo not drawn) [compound 202, 2‐hydroxy‐2‐phenylacetic acid] | 96.7 ± 12.5 | 0 | 55.6 | 
OCc1ccc(CN2CCCC2)cc1 [compound 559, [4‐(pyrrolidin‐1‐ylmethyl)phenyl]methanol] |  |  |  | HeLa Cells Alamar Blue (HeLa cells): 91.7 ± 15.8 percentage of controls; Tb Ino1 Tm Shift [˚C] (TbINO1; [3]): 0.05 ± 0.08 °C; A549 Cells Alamar Blue (A549 cells): 110 percentage of controls
Cc1cc(CO)nn1C [compound 76, (1,5‐dimethyl‐1H‐pyrazol‐3‐yl)methanol] | 99.6 ± 4.5 | 0.56 ± 0.08 | 100 | 
Cc1nnc(N)s1 [compound 39, 5‐methyl‐1,3,4‐thiadiazol‐2‐amine] | 105 ± 14.5 | 0.31 ± 0.08 | 72.3 | 
NCc1ccoc1 [compound 5, 3‐furylmethylamine] | 101 ± 5.3 | 0.3 ± 0.06 | 113 | 
(Piperidino‐3‐pyridinyl)methanol [compound 569] |  |  |  | HeLa Cells Alamar Blue (HeLa cells): 89.2 ± 4.8 percentage of controls; Tb Ino1 Tm Shift [˚C] (TbINO1; [3]): 0.35 ± 0.07 °C; A549 Cells Alamar Blue (A549 cells): 106.4 percentage of controls
O=C(O)Cc1cc(F)cc(F)c1 [compound 359, 2‐(3,5‐difluorophenyl)acetic acid] | 108 ± 13.6 | 0.13 ± 0.06 | 128 | 
CN1CCN(c2ccccc2N)CC1 [compound 561, 2‐(4‐methylpiperazin‐1‐yl)aniline] | 74.3 ± 11.7 |  | 101 | ΔTm at 1000 µM (TbINO1; [4]): 0.46 ± 0.07 °C
COC(=O)Cc1ccsc1 [compound 238, methyl 2‐(3‐thienyl)acetate] | 111 ± 9.9 | 0.39 ± 0.07 | 64.7 | 
NCc1ccccc1Cl [compound 136, 2‐chlorobenzylamine] | 53.3 ± 12.2 | 0.02 ± 0.07 | 90.4 | 
O=C(O)c1cc2ccccc2cn1 [compound 555, isoquinoline‐3‐carboxylic acid hydrate] | 92.1 ± 10.1 |  | 100 | ΔTm at 1000 µM (TbINO1; [4]): 0.5 ± 0.09 °C
Nc1ccc(F)cc1F [compound 88, 2,4‐difluoroaniline] | 87.6 ± 10.6 | 1.11 ± 0.07 | 132 | 
O=C(O)C1NCCS1 (stereo not drawn) [compound 103, 1,3-thiazolane-2-carboxylic acid] | 103 ± 6.4 |  | 107 | viability at 500 µM (HeLa cells; [5]): 103 ± 6.4%; ΔTm at 1000 µM (TbINO1; read-out: TbIno1 Tm shift [°C]): 2.63 ± 0.08 °C
NCc1ccc(C(F)(F)F)cc1 [compound 390, 4‐(trifluoromethyl)benzylamine] | 84.4 ± 6.8 | 0.38 ± 0.08 | 136 | 
Cc1ncsc1C(=O)O [compound 145, 4‐Methyl‐thiazole‐5‐carboxylic acid] | 90.6 ± 16.1 | 0.01 ± 0.07 | 114 | 
Cn1c(CO)cc2sccc21 [compound 331, (4-methyl-4H-thieno[3,2-b]pyrrol-5-yl)methanol] | 93.6 ± 14.9 |  | 121 | viability at 500 µM (HeLa cells; [5]): 93.6 ± 14.9%; CC50 (HeLa cells; Homo sapiens, HeLa, read-out: HeLa ED50): 169 ± 10 µM; ΔTm at 1000 µM (TbINO1; read-out: TbIno1 Tm shift [°C]): 1.54 ± 0.07 °C
COC(=O)c1cccc(CN)c1.Cl [compound 632, 3‐Aminomethylbenzoic acid methyl ester hydrochloride] |  |  |  | HeLa Cells Alamar Blue (HeLa cells): 44.8 ± 10.2 percentage of controls; Tb Ino1 Tm Shift [˚C] (TbINO1; [3]): 0.22 ± 0.07 °C; A549 Cells Alamar Blue (A549 cells): 107.3 percentage of controls
c1ccc(Sc2ccsc2)cc1 [compound 574, 3‐(phenylthio)thiophene] | 98.8 ± 18.5 | 0.11 ± 0.07 | 93.9 | 
Cc1cccc(CN)c1C [compound 113, 2,3‐dimethylbenzylamine] | 89.3 ± 15.9 | 0.12 ± 0.07 | 83.6 | 
